In ChEMBL document CHEMBL5728354, “1,2-dihydro-3H-pyrazolo[3,4-d]pyrimidin-3-one derivative as Wee1 inhibitor” (2021) one finds IC50 data, which are given here for three compounds.

The target in the test is Wee1-like protein kinase (Homo sapiens, UniProt P30291). Briefly: In Vitro Enzymatic Inhibitory Activity Assay: Experimental Reagents:Basic reaction buffer: 20 mM hydroxyethylpiperazine ethanesulfuric acid (pH 7.5), 10 mM magnesium chloride, 1 mM EGTA, 0.02% Brij35, 0.02 mg/mL bovine serum albumin, 0.1 mM Na3VO4, 2 mM DTT, 1% DMSOEnzyme: Wee-1 concentration is 150 nMMatrix: MBP concentration is 20 μMCompound Treatment:The tested compound was formulated into a 5 mM solution with 100% DMSO, and a 10 points 3-fold gradient dilution was performed with DMSO through an automated pipetting station epMotion 5070.Experiment Procedure:1. Fresh matrix configuration reaction buffer was prepared;2. The Wee-1 was added into the matrix solution and shaked gently;3. DMSO solution of the compound were added into the kinase reaction mixture using an acoustic technique (Echo 550; nanoliter range) and incubated for 20 minutes at room temperature;4. 33P-ATP (specific activity, 10 μCi/μL) was added into the reaction mixture to stimulate the reaction;5. Incubated for 2 hours at room temperature;6. Kinase activity was detected by filter-binding method.
Sequence of Wee1-like protein kinase (P30291 whole entry): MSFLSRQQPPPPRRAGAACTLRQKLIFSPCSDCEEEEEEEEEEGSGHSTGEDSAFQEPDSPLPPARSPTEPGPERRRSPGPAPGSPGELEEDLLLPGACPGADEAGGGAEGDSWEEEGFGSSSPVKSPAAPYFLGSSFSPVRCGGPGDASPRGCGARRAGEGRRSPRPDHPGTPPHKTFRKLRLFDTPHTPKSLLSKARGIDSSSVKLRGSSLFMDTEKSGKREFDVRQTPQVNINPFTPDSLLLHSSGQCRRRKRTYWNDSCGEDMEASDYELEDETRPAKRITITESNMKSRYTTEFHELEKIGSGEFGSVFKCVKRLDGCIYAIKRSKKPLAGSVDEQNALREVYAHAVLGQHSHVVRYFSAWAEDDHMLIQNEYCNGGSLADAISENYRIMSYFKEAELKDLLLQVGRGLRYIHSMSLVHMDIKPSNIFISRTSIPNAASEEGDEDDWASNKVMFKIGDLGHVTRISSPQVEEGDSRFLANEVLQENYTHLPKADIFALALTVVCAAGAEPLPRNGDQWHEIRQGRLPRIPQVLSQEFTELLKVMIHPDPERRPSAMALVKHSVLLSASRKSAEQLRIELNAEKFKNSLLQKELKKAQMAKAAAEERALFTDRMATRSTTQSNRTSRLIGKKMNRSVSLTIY

With `C=CCn1c2nc(Nc3ccc(N4CCC5(CCN(C)CC5)CC4)cc3)ncc2c(=O)n1-c1ccccc1Cl`, the IC50 is 620 nM.

Regarding `C=CCn1c(=O)c2cnc(Nc3ccc(N4CCC5(CCN(C)CC5)CC4)cn3)nc2n1-c1cccc(C(C)(C)O)n1`, the half-inhibitory concentration (IC50) stood at 64.6 nM.

For the compound `C=CCn1c(=O)c2cnc(Nc3ccc(N4CCC5(CCN(C)CC5)CC4)cc3)nc2n1-c1cnccn1`, the IC50 is 90.4 nM.
